Test results from ChEMBL document CHEMBL1909046, “DrugMatrix in vitro pharmacology data”.

What was measured:
[1] = target: T1, Alpha-2C adrenergic receptor (Homo sapiens, UniProt P18825); assay: DRUGMATRIX: Adrenergic Alpha-2C radioligand binding (ligand: [3H] MK-912); type: cell membranes, Sf9, Membrane; details: sf9; note: call rule not given here
T1 sequence (P18825 whole entry): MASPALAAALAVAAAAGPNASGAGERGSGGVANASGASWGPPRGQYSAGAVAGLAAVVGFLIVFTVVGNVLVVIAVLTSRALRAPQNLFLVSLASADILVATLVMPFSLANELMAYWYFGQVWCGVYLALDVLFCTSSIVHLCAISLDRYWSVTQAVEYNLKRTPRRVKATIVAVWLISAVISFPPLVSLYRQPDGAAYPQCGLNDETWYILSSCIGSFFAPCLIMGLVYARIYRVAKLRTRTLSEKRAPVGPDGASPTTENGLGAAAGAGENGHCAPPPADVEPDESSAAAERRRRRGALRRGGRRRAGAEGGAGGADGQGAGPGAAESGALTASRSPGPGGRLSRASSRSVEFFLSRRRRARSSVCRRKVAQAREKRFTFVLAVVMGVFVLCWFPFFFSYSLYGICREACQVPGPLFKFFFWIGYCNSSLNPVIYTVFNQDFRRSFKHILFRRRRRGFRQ

[2] = target: T2, C-X-C chemokine receptor type 1 (Homo sapiens, UniProt P25024); note: in other assays of this panel Not Active means under 50% inhibition at 10 µM
T2 sequence (P25024 whole entry): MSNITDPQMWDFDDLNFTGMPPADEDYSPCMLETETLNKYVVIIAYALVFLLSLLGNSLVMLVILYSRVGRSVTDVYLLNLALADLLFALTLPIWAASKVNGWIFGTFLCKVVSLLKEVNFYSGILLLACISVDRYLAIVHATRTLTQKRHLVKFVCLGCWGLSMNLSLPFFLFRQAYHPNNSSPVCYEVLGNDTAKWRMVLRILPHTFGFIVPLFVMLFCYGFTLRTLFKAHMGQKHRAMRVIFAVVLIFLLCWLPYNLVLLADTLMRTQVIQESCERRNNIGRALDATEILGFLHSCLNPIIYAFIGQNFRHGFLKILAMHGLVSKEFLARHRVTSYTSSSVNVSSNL

[3] = target: T3, Muscarinic acetylcholine receptor M4 (Homo sapiens, UniProt P08173); type: cell membranes, CHO-K1, Membrane; details: cho-k1; note: in other assays of this panel Not Active means under 50% inhibition at 10 µM
T3 sequence (P08173 whole entry): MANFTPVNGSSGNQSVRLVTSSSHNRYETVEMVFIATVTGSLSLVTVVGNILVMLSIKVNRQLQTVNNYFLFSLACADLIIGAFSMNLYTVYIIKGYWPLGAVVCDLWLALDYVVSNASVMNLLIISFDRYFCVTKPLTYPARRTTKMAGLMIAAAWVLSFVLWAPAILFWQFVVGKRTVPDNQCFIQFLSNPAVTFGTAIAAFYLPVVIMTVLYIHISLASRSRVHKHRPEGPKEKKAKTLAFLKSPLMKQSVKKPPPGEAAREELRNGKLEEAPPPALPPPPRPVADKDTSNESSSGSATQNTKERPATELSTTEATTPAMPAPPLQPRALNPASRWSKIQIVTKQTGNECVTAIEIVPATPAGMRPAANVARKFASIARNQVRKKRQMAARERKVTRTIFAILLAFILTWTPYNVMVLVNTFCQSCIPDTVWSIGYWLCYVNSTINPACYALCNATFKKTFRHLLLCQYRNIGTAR

[4] = target: Prostaglandin G/H synthase 1 (Homo sapiens, UniProt P23219); assay: biochemical; type: tissue-based, Platelet; details: platelet;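 note: inhibition of COX-1 enzyme activity, with arachidonic acid supplied as substrate; in other assays of this panel Not Active means under 50% inhibition at 10 µM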
Cytochrome P450 2A6 = target: T4, Cytochrome P450 2A6 (Homo sapiens, UniProt P11509); details: bti-tn-5b1-4; note: in other assays of this panel Not Active means under 50% inhibition at 10 µM
T4 sequence (P11509 whole entry): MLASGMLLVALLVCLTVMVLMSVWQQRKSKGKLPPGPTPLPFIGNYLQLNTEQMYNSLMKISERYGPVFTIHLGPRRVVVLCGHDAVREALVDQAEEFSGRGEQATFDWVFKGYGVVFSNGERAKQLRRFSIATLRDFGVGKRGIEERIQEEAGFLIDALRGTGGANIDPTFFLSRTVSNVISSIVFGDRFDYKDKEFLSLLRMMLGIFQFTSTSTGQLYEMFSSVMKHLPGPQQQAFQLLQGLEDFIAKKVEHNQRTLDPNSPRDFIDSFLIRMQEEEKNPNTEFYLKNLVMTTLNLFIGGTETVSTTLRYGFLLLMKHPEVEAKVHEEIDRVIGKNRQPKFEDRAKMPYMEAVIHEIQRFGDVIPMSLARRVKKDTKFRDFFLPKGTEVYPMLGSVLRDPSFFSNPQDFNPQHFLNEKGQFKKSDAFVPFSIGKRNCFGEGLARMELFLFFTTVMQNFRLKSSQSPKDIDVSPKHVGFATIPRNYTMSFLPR

D(3) dopamine receptor = D(3) dopamine receptor (Homo sapiens, UniProt P35462); assay: DRUGMATRIX: Dopamine D3 radioligand binding (ligand: [3H] Spiperone); type: cell membranes, CHO, Membrane; details: cho
D(3) dopamine receptor, sequence (P35462 whole entry): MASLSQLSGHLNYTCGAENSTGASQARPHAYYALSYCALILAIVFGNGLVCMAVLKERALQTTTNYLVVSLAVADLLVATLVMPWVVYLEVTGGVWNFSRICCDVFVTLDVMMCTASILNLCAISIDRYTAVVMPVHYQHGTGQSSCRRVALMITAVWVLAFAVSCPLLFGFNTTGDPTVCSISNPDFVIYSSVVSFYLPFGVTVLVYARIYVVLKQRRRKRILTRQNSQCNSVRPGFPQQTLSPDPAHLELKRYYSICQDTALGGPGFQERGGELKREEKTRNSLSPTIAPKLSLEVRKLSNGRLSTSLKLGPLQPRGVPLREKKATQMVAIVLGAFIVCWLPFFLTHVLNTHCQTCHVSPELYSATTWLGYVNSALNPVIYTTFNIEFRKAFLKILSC

Prostaglandin G/H synthase 1, sequence (P23219 whole entry): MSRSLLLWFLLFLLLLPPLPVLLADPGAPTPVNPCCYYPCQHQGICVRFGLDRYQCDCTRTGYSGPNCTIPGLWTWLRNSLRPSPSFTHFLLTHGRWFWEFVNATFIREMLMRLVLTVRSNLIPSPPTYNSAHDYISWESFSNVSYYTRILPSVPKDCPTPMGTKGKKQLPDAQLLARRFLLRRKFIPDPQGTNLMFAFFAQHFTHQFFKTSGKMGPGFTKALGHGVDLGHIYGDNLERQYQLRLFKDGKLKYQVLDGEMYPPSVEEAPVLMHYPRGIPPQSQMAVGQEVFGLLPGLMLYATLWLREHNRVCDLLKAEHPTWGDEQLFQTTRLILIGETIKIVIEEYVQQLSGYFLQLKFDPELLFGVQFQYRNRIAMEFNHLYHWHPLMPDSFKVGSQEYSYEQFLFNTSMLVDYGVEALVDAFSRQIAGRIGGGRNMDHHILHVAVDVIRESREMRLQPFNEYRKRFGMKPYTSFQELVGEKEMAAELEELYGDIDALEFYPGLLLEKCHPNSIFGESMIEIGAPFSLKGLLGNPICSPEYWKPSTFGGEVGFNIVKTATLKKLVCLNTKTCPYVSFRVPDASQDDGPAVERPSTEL

CC(C)C(Br)C(=O)NC(N)=O (configuration not stated) [BROMISOVALUM]
Not Active: IC50 [1] | IC50 [2] | IC50 [3] | IC50 [4] | IC50 (Cytochrome P450 2A6) | Ki (Cytochrome P450 2A6) | IC50 (D(3) dopamine receptor)

CCCC1O[C@@H]2C[C@H]3[C@@H]4CCC5=CC(=O)C=C[C@]5(C)[C@H]4[C@@H](O)C[C@]3(C)[C@]2(C(=O)CO)O1 (some centres not stated) [BUDESONIDE]
Not Active: IC50 [1] | IC50 [2] | IC50 [3] | IC50 [4] | IC50 (Cytochrome P450 2A6) | Ki (Cytochrome P450 2A6) | IC50 (D(3) dopamine receptor)

CC(NC(C)(C)C)C(=O)c1cccc(Cl)c1 (configuration not stated) [BUPROPION]
Not Active: IC50 [1] | IC50 [2] | IC50 [3] | IC50 [4] | IC50 (Cytochrome P450 2A6) | Ki (Cytochrome P450 2A6) | IC50 (D(3) dopamine receptor)

CN(Cc1ccc(C(C)(C)C)cc1)Cc1cccc2ccccc12 [BUTENAFINE]
Not Active: IC50 [1] | IC50 [2] | IC50 [3] | IC50 [4] | IC50 (Cytochrome P450 2A6) | Ki (Cytochrome P450 2A6) | IC50 (D(3) dopamine receptor)

C[C@H](CS)C(=O)N1CCC[C@H]1C(=O)O [CAPTOPRIL]
Not Active: IC50 [1] | IC50 [2] | IC50 [3] | IC50 [4] | IC50 (Cytochrome P450 2A6) | Ki (Cytochrome P450 2A6) | IC50 (D(3) dopamine receptor)

O=C(O)CCCc1ccc(N(CCCl)CCCl)cc1 [CHLORAMBUCIL]
Not Active: IC50 [1] | IC50 [2] | IC50 [3] | IC50 [4] | IC50 (Cytochrome P450 2A6) | Ki (Cytochrome P450 2A6) | IC50 (D(3) dopamine receptor)

C[C@H](CCC(=O)O)[C@H]1CC[C@H]2[C@@H]3[C@H](O)C[C@@H]4C[C@H](O)CC[C@]4(C)[C@H]3C[C@H](O)[C@]12C [CHOLIC ACID]
Not Active: IC50 [1] | IC50 [2] | IC50 [3] | IC50 [4] | IC50 (Cytochrome P450 2A6) | Ki (Cytochrome P450 2A6) | IC50 (D(3) dopamine receptor)

Cc1cc(C2CCCCC2)n(O)c(=O)c1 [CICLOPIROX]
Not Active: IC50 [1] | IC50 [2] | IC50 [3] | IC50 [4] | IC50 (Cytochrome P450 2A6) | Ki (Cytochrome P450 2A6) | IC50 (D(3) dopamine receptor)

CC1=C2C(=CO[C@H](C)[C@H]2C)C(O)=C(C(=O)O)C1=O [CITRININ]
Not Active: IC50 [1] | IC50 [2] | IC50 [3] | IC50 [4] | IC50 (Cytochrome P450 2A6) | Ki (Cytochrome P450 2A6) | IC50 (D(3) dopamine receptor)

CC(C)(C)NCC(O)c1cc(Cl)c(N)c(Cl)c1 (configuration not stated) [CLENBUTEROL]
Not Active: IC50 [1] | IC50 [2] | IC50 [3] | IC50 [4] | IC50 (Cytochrome P450 2A6) | Ki (Cytochrome P450 2A6) | IC50 (D(3) dopamine receptor)

CC(C)(Oc1ccc(Cl)cc1)C(=O)O [CLOFIBRIC ACID]
Not Active: IC50 [1] | IC50 [2] | IC50 [3] | IC50 [4] | IC50 (Cytochrome P450 2A6) | Ki (Cytochrome P450 2A6) | IC50 (D(3) dopamine receptor)
